These results are taken from US7504406B2, “Derivatives of pyrido[2,3-d]pyrimidine, the preparation thereof, and the therapeutic application of the same” (Sanofi-Aventis, priority 2005, dated 2009).

Type in all cases: cell-based
One assay has as its system Kasumi-1 line. Briefly: MTS cell proliferation and viability test, Kasumi-1 line. Conditions: Homo sapiens, Kasumi-1 leukaemia line, 72 hours of incubation, read-out: IC50 (50% loss of cell proliferation and cell viability). The procedure:
[…]
(§1) The cell proliferation and viability were determined in a test using 3-(4,5-dimethylthiazol-2-yl)-5-(3-carboxymethoxyphenyl)-2-(4-sulphophenyl)-2H-tetrazolium (MTS) according to Fujishita T. et al., Oncology, 2003, 64 (4), 399-406. In this test, the mitochondrial ability of the live cells to convert MTS to a coloured compound is measured after 72 hours of incubation of a compound of formula (I) according to the invention. […]

For the next assay, the system named is K-562 line. The assay is described as follows: MTS cell proliferation and viability test, K-562 line. Conditions: Homo sapiens, K562, K-562 leukaemia line, 72 hours of incubation, read-out: IC50 (50% loss of cell proliferation and cell viability). The protocol:
The compounds of formula (I) according to the present invention were tested in vitro on a panel of tumour lines of human origin, originating: • from breast cancer: MDA-MB231 (American Type culture collection, Rockville, Md., USA, ATCC-HTB26), MDA-A1 or MDA-ADR (called multi-drug resistant MDR line, and described by E. Collomb et al., in Cytometry, 12(1):15-25, 1991), and MCF7 (ATCC-HTB22), • from prostate cancer: DU145 (ATCC-HTB81) and PC3 (ATCC-CRL1435), • from colon cancer: HCT116 (ATCC-CCL247) and HCT15 (ATCC-CCL225), • from lung cancer: H460 (described by Carmichael in Cancer Research 47 (4):936-942, 1987 and provided by the National Cancer Institute, Frederick Cancer Research and Development Center, Frederick, Md., USA), • from glioblastoma: SF268 (described by Westphal in Biochemical & Biophysical Research Communications 132 (1): 284-289, 1985 and provided by the National Cancer Institute, Frederick Cancer Research and Development Center, Frederick, Md., USA), • from leukaemia: CMLT1 (described by Kuriyama et al. in Blood, 74: 1989, 1381-1387, by Soda et al. in British Journal of Haematology, 59: 1985, 671-679 and by Drexler, in Leukemia Research, 18: 1994, 919-927 and provided by the company DSMZ (Deutsche Sammlung von Mikroorganismen und Zellkulturen GmbH) Mascheroder Weg 1b, 38124 Braunschweig, Germany), K-562 (described by Lozzio et al., J Natl Cancer Inst 50: 535 (1973), by Lozzio et al., Blood 45: 321 (1975), and provided by DSMZ No. ACC 10), KG-1a (described by Koeffler et al., Blood 56: 265 (1980), and provided by DSMZ No. ACC 421), and Kasumi-1 (described by Asou et al., Blood 77: 2031 (1991), and provided by DSMZ No. ACC 220).
The cell proliferation and viability were determined in a test using 3-(4,5-dimethylthiazol-2-yl)-5-(3-carboxymethoxyphenyl)-2-(4-sulphophenyl)-2H-tetrazolium (MTS) according to Fujishita T. et al., Oncology, 2003, 64 (4), 399-406. In this test, the mitochondrial ability of the live cells to convert MTS to a coloured compound is measured after 72 hours of incubation of a compound of formula (I) according to the invention. The concentrations of compound according to the invention which result in a 50% loss of cell proliferation and cell viability (IC50) are between 1 nM and 10 μM, depending on the tumor line and the compound tested. For example, compound No. 1 has an IC50 of 40 nM on the K-562 line, an IC50 of 50 nM on the KG-1a line and an IC50 of 40 nM on the Kasumi-1 line.

Another assay deals with KG-1a line. Briefly: MTS cell proliferation and viability test, KG-1a line. Conditions: Homo sapiens, KG-1a leukaemia line, 72 hours of incubation, read-out: IC50 (50% loss of cell proliferation and cell viability). The procedure:
[…]
as §1

Another assay has as its system SF268. The assay is described as follows: MTS cell proliferation and viability test, SF268 line. The note with it: Homo sapiens, SF-268, SF268 glioblastoma line, 72 hours of incubation, read-out: IC50 (50% loss of cell proliferation and cell viability). The procedure:
[…]
as §1

`CC(C)(C)NC(=O)Nc1nc2nc(Nc3ccc4nsnc4c3)ncc2cc1-c1c(Cl)cccc1Cl` [Compound No. 1, N-[2-(2,1,3-benzothiadiazol-5-ylamino)-6-(2,6-dichlorophenyl)pyrido[2,3-d]pyrimidin-7-yl]-N′-(1,1-dimethylethyl)urea]: the figures for the IC50 in the assay on Kasumi-1 line, with K-562 line and with KG-1a line were 40 nM, 40 nM and 50 nM, respectively. On to `CCN(CC)Cc1cc2cc(Nc3ncc4cc(-c5c(Cl)cccc5Cl)c(NC(=O)NC(C)(C)C)nc4n3)ccc2o1` [Compound No. 5, N-[6-(2,6-dichlorophenyl)-2-[[2-[(diethylamino)methyl]-5-benzofuranyl]amino]pyrido[2,3-d]pyrimidin-7-yl]-N′-(1,1-dimethylethyl)urea], for which the IC50 in the assay on K-562 line is 5 nM.

For `CC(C)(C)NC(=O)Nc1nc2nc(Nc3ccc4oc(CN)nc4c3)ncc2cc1-c1c(Cl)cccc1Cl` [Compound No. 7, N-[2-[[2-(aminomethyl)-5-benzoxazolyl]amino]-6-(2,6-dichlorophenyl)pyrido[2,3-d]pyrimidin-7-yl]-N′-(1,1-dimethylethyl)urea], in the assay with SF268, the IC50 came to 43 nM.

Consider `CC(C)(C)NC(=O)Nc1nc2nc(Nc3ccc4ncnn4c3)ncc2cc1-c1c(Cl)cccc1Cl` [Compound No. 9, N-[6-(2,6-dichlorophenyl)-2-([1,2,4]triazolo[1,5-a]pyridin-6-ylamino)pyrido[2,3-d]pyrimidin-7-yl]-N′-(1,1-dimethylethyl)urea], for which the IC50 with K-562 line was 19 nM. For `CCNC(=O)Nc1nc2nc(Nc3ccc4nsnc4c3)ncc2cc1-c1c(Cl)cccc1Cl` [Compound No. 13, N-[2-(2,1,3-benzothiadiazol-5-ylamino)-6-(2,6-dichlorophenyl)pyrido[2,3-d]pyrimidin-7-yl]-N′-ethylurea], the IC50 with K-562 line amounted to 74 nM.
